Columns and labels:
[1] = test system: Human breast cancer cells SK-BR-3 (WT); test: Cell proliferation inhibition assay (CTG), SK-BR-3 (WT); format: cell-based; conditions: SK-BR-3 (WT) cells, 3 days incubation, CTG readout
Method: (§1) Cell Proliferation Inhibition Assay
(§2) 1. Experimental Materials
(§3) II. Experimental Protocol
(§4) • a) Cell suspension was prepared; • b) The medium was removed from the culture flask; • c) The cells were rinsed once with PBS; • d) Trypsin was added for digestion, and the cells were centrifuged and collected; • e) The cells were resuspended in medium, counted and adjusted to an appropriate concentration; • f) 100 µL of cell suspension was added to each well of a 96-well plate. One plate was used for each cell line, which was incubated overnight in a 37 °C, 5% CO2 incubator.
(§5) 2. Treatment of Compounds
(§6) • a) Serial dilutions of the test compounds were prepared: The compound was prepared as a 10 mM stock solution. 18 µL of the stock solution was dissolved in 982 µL of the culture medium containing DMSO, followed by 4-fold serial dilutions in culture medium containing 0.5% DMSO to give 9 concentrations. The concentrations of the diluted compound were as follows: 180000 nM, 45000 nM, 11250 nM, 2812.5 nM, 703.13 nM, 175.78 nM, 43.95 nM, 10.99 nM, and 2.75 nM. • b) After thorough mixing, 20 µL of each compound solution was added to the cell plate containing 100 µL of cells per well. Each concentration was tested in triplicate. Final concentrations of the compound were as follows: 30000 nM, 7500 nM, 1875 nM, 468.75 nM, 117.188 nM, 29.30 nM, 7.32 nM, 1.83 nM, and 0.46 nM. • c) The cells were transferred into the incubator and incubated for 3 days.
(§7) The cell plate was removed, 25 µL of CTG reagent was added to each well of the 96-well plate, the mixture was shook on a plate shaker at room temperature for 10 minutes, and the plate was read.
(§8) The cell survival rate was calculated using the following formula (% Cell Survival): % Cell Survival = 100% × (OD_Sample−OD_LCave)/(OD_HC−OD_LCave) [formula] • OD_HC: Reading of the 0.1‰ DMSO control group • OD_Sample: Reading of cells treated with compound • OD_LCave: Reading of blank medium
(§9) Analyzed by Prism: Dose-response-Inhibition - Log (inhibitor) vs response (three parameters for the best fit).

[2] = test system: Human breast cancer cells T47D (H1047R); test: Cell proliferation inhibition assay (CTG), T47D (H1047R); format: cell-based; conditions: 3 days incubation, CTG readout
Method: as §1, §2, §3, §4, §5, §6, §7, §8, §9

Compound | IC50 ([1]; Homo sapiens, 72 h) [nM] | IC50 ([2]; Homo sapiens, 72 h) [nM] | IC50 [1] [nM] | IC50 [2] [nM]
CC(Nc1ccccc1C(=O)O)c1cc(F)cc2c(=O)n3c(nc12)CN(c1cccnc1)CC3 (single isomer, unassigned) [Compound C15] | > 5000 | 500 to 2000 | – | –
CC(Nc1ccccc1C(=O)O)c1cc(F)cc2c(=O)c3c(oc12)CN(S(=O)(=O)C(C)C)CC3 (single isomer, unassigned) [Compound C39] | > 5000 | ≤ 500 | – | –
CC(Nc1ccccc1C(=O)O)c1cc(F)cc2c(=O)c3c(oc12)CN(C(=O)N1CCCC1)CC3 (single isomer, unassigned) [Compound C41] | > 5000 | ≤ 500 | – | –
CC(Nc1ccccc1C(=O)O)c1cc(F)cc2c(=O)c3c(oc12)CN(C(=O)N1CCC1)CC3 (single isomer, unassigned) [Compound C47] | > 5000 | ≤ 500 | – | –
Cc1cc(C(C)Nc2ccc(Cl)nc2C(=O)O)c2oc3c(c(=O)c2c1)CCN(S(=O)(=O)C(C)C)C3 (single isomer, unassigned) [Compound C49] | > 5000 | ≤ 500 | – | –
Cc1cc(C(C)Nc2ccccc2C(=O)O)c2oc3c(c(=O)c2c1)CCN(C(=O)N1CCCC1)C3 (single isomer, unassigned) [Compound C50] | > 5000 | ≤ 500 | – | –
Cc1cc(C(C)Nc2ccccc2C(=O)O)c2oc3c(c(=O)c2c1)CCN(S(=O)(=O)N1CCCC1)C3 (single isomer, unassigned) [Compound C56] | > 5000 | ≤ 500 | – | –
Cc1cc(C(C)Nc2ccccc2C(=O)O)c2oc3c(c(=O)c2c1)CCN(S(=O)(=O)C1CC1)C3 (single isomer, unassigned) [Compound C59] | > 5000 | ≤ 500 | – | –
Cc1cc(C(C)Nc2ccccc2C(=O)O)c2oc3c(c(=O)c2c1)CCN(S(=O)(=O)c1ccccc1)C3 (single isomer, unassigned) [Compound C61] | > 5000 | ≤ 500 | – | –
CC(Nc1ccccc1C(=O)O)c1cc(F)cc2c(=O)c3c(oc12)C(C)N(S(=O)(=O)C(C)C)CC3 (single isomer, unassigned) [Compound C163] | > 5000 | ≤ 500 | – | –
Cc1cc(C(C)Nc2ccc(Cl)nc2C(=O)O)c2nc3c(c(=O)n2c1)CCN(S(=O)(=O)c1c(C)cnn1C)C3 (single isomer, unassigned) [Compound C184] | > 5000 | ≤ 500 | – | –
Cc1cc(C(C)Nc2ccccc2C(=O)O)c2nc3c(c(=O)n2c1)CCN(S(=O)(=O)C(C)C)C3 (single isomer, unassigned) [Compound C196] | > 5000 | ≤ 500 | – | –
Cc1cc(C(C)Nc2ccccc2C(=O)O)c2oc3c(c(=O)c2c1)CCN(C(c1ccccc1)C(F)(F)F)C3 (single isomer, unassigned) [Compound C207] | > 5000 | ≤ 500 | – | –
Cc1cc(C(C)Nc2ccccc2C(=O)O)c2oc3c(c(=O)c2c1)CCN(C(c1ccccc1)C(F)(F)F)C3 (single isomer, unassigned) [Compound C209] | – | – | > 5000 | ≤ 500
C[C@@H](Nc1ccc(Cl)nc1C(=O)O)c1cc(Cl)cc2c(=O)c3c(oc12)CN(S(=O)(=O)N1CCOCC1)CC3 [Compound C66] | > 5000 | ≤ 500 | – | –
C[C@@H](Nc1ccc(Cl)nc1C(=O)O)c1cc(F)cc2c(=O)c3c(oc12)CN(S(=O)(=O)N1CCOCC1)CC3 [Compound C67] | > 5000 | ≤ 500 | – | –
C[C@@H](Nc1ccc(Cl)nc1C(=O)O)c1cc(F)cc2c(=O)c3c(oc12)CN(S(=O)(=O)C1CC1)CC3 [Compound C68] | > 5000 | 500 to 2000 | – | –
CC(C)S(=O)(=O)N1CCc2c(oc3c([C@@H](C)Nc4ccc(Cl)nc4C(=O)O)cc(F)cc3c2=O)C1 [Compound C72] | > 5000 | 500 to 2000 | – | –
C[C@@H](Nc1ccc(Cl)nc1C(=O)O)c1cc(F)cc2c(=O)c3c(oc12)CN(S(=O)(=O)N1CCC1)CC3 [Compound C73] | > 5000 | 500 to 2000 | – | –

Compound | IC50 ([1]; Homo sapiens, 72 h) [nM] | IC50 ([2]; Homo sapiens, 72 h) [nM] | IC50 [1] [nM] | IC50 [2] [nM]
C[C@@H](Nc1ccc(Cl)nc1C(=O)O)c1cc(F)cc2c(=O)c3c(oc12)CN(S(=O)(=O)c1ccccc1)CC3 [Compound C77] | > 5000 | ≤ 500 | – | –
C[C@@H](Nc1ccccc1C(=O)O)c1cc(F)cc2c(=O)c3c(oc12)CN(S(=O)(=O)C1CC1)CC3 [Compound C78] | > 5000 | 500 to 2000 | – | –
C[C@@H](Nc1ccccc1C(=O)O)c1cc(F)cc2c(=O)c3c(oc12)CN(S(=O)(=O)N1CCOCC1)CC3 [Compound C80] | > 5000 | ≤ 500 | – | –
Cc1cc([C@@H](C)Nc2ccc(Cl)nc2C(=O)O)c2oc3c(c(=O)c2c1)CCN(S(=O)(=O)N1CCOCC1)C3 [Compound C81] | > 5000 | 500 to 2000 | – | –
Cc1cc([C@@H](C)Nc2ccc(Cl)nc2C(=O)O)c2oc3c(c(=O)c2c1)CCN(S(=O)(=O)c1ccccc1)C3 [Compound C82] | > 5000 | ≤ 500 | – | –
C[C@@H](Nc1ccc(Cl)nc1C(=O)O)c1cc(F)cc2c(=O)c3c(oc12)CN(C(=O)N1CC(F)C1)CC3 [Compound C83] | > 5000 | 500 to 2000 | – | –
C[C@@H](Nc1ccccc1C(=O)O)c1cc(F)cc2c(=O)c3c(oc12)CN(S(=O)(=O)c1ccccc1)CC3 [Compound C89] | > 5000 | ≤ 500 | – | –
C[C@@H](Nc1ccc(Cl)nc1C(=O)O)c1cc(F)cc2c(=O)c3c(oc12)CN(S(=O)(=O)c1ccccc1C#N)CC3 [Compound C90] | > 5000 | ≤ 500 | – | –
C[C@@H](Nc1ccc(Cl)nc1C(=O)O)c1cc(F)cc2c(=O)c3c(oc12)CN(S(=O)(=O)c1cccc(C#N)c1)CC3 [Compound C91] | > 5000 | 500 to 2000 | – | –
C[C@@H](Nc1ccc(Cl)nc1C(=O)O)c1cc(F)cc2c(=O)c3c(oc12)CN(S(=O)(=O)c1ccc(C#N)cc1)CC3 [Compound C92] | > 5000 | 500 to 2000 | – | –
C[C@@H](Nc1ccc(Cl)nc1C(=O)O)c1cc(F)cc2c(=O)c3c(oc12)CN(S(=O)(=O)c1ccccc1F)CC3 [Compound C93] | > 5000 | ≤ 500 | – | –
C[C@@H](Nc1ccc(Cl)nc1C(=O)O)c1cc(F)cc2c(=O)c3c(oc12)CN(S(=O)(=O)c1cccc(F)c1)CC3 [Compound C94] | > 5000 | ≤ 500 | – | –
C[C@@H](Nc1ccc(Cl)nc1C(=O)O)c1cc(F)cc2c(=O)c3c(oc12)CN(S(=O)(=O)c1ccc(F)cc1)CC3 [Compound C95] | > 5000 | ≤ 500 | – | –
COc1ccccc1S(=O)(=O)N1CCc2c(oc3c([C@@H](C)Nc4ccc(Cl)nc4C(=O)O)cc(F)cc3c2=O)C1 [Compound C96] | > 5000 | ≤ 500 | – | –
COc1cccc(S(=O)(=O)N2CCc3c(oc4c([C@@H](C)Nc5ccc(Cl)nc5C(=O)O)cc(F)cc4c3=O)C2)c1 [Compound C97] | > 5000 | ≤ 500 | – | –
COc1ccc(S(=O)(=O)N2CCc3c(oc4c([C@@H](C)Nc5ccc(Cl)nc5C(=O)O)cc(F)cc4c3=O)C2)cc1 [Compound C98] | > 5000 | ≤ 500 | – | –
C[C@@H](Nc1ccc(Cl)nc1C(=O)O)c1cc(F)cc2c(=O)c3c(oc12)CN(S(=O)(=O)c1nccn1C)CC3 [Compound C101] | > 5000 | 500 to 2000 | – | –
C[C@@H](Nc1ccc(Cl)nc1C(=O)O)c1cc(F)cc2c(=O)c3c(oc12)CN(S(=O)(=O)C1CCCC1)CC3 [Compound C108] | > 5000 | 500 to 2000 | – | –
